# Columns and labels:
# [1] = biological target: T1, Full length Akt1 (Homo sapiens, UniProt P31749); experiment: In vitro Akt kinase enzymatic assay (HTRF), Akt1; format: biochemical; conditions: 0.4 nM Akt1, substrate solution with 5 mM ATP, 25° C. 1 hr
# T1 construct: Full length Akt1 (cat #P2999); purchased PerkinElmer P2999
# Summary of the method: (§1)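 Full-length enzyme (0.4 nM Akt1 or 0.6 nM Akt2/Akt3 in the enzyme solution) was combined with a substrate solution of 0.1 μM ULight-Crosstide plus 5 mM ATP in pH 7.8 HEPES/MgCl2/DTT/Tween20 buffer and reacted 1 hr at 25° C. The EDTA stop contained Eu anti-phospho-Crosstide; IC50 was fitted from 11-point HTRF inhibition curves.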
# [2] = biological target: T2, Full length Akt2 (Homo sapiens, UniProt P31751); experiment: In vitro Akt kinase enzymatic assay (HTRF), Akt2; format: biochemical; conditions: 0.6 nM Akt2, substrate solution with 5 mM ATP, 25° C. 1 hr
# T2 construct: Full length Akt1 (cat #P2999), Akt2 (cat #PV3184); purchased PerkinElmer PV3184
# T2 sequence (P31751 whole entry): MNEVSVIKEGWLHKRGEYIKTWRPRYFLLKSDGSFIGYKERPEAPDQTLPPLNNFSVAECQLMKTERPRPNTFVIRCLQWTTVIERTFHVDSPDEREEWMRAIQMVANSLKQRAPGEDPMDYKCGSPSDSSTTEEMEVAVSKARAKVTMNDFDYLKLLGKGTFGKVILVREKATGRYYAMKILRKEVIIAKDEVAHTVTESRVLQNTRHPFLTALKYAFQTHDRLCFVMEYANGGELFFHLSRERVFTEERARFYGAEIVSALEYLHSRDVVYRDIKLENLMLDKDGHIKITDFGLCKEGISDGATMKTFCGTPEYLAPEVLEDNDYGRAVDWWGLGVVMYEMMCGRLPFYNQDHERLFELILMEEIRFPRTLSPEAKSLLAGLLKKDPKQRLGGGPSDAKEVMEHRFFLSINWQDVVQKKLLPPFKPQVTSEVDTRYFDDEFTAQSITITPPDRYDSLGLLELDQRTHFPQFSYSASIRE
# Summary of the method: as §1
# [3] = biological target: T3, Full length Akt3 (Homo sapiens, UniProt Q9Y243); experiment: In vitro Akt kinase enzymatic assay (HTRF), Akt3; format: biochemical; conditions: 0.6 nM Akt3, substrate solution with 5 mM ATP, 25° C. 1 hr
# T3 construct: Full length Akt1 (cat #P2999), Akt2 (cat #PV3184), Akt3 (cat #PV3185); purchased PerkinElmer PV3185
# T3 sequence (Q9Y243 whole entry): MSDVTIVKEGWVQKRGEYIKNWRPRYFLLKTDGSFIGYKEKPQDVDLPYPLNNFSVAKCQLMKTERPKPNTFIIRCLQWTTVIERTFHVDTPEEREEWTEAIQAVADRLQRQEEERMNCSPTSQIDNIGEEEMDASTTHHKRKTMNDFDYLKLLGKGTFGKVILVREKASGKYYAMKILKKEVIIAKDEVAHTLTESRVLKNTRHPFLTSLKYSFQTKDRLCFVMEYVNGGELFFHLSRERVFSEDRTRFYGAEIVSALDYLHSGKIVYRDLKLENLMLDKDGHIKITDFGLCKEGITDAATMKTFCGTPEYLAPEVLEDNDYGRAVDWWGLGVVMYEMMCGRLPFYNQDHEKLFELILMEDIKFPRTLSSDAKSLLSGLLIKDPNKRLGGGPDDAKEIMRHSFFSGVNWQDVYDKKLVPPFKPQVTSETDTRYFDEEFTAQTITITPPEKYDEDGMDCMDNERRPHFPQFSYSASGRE
# Summary of the method: as §1
# [4] = biological target: T4, Full length PKA (Homo sapiens, UniProt P17612); experiment: PKA in vitro enzymatic assay (HTRF); format: biochemical; conditions: 0.035 nM enzyme solution, substrate solution with 5 mM ATP, 25° C. 1 hr
# T4 construct: Full length PKA (cat #P2912); purchased Invitrogen P2912
# Summary of the method: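 Reaction buffer was 50 mM HEPES pH 7.8, 10 mM MgCl2, 5 mM DTT and 0.005% Tween20. Enzyme solution was 0.035 nM, and substrate solution was 0.1 μM fluorescein-CREBtide with 5 mM ATP. After 1 h at 25°C, EDTA plus Tb anti-pS133 antibody was added, TR-FRET was read, and IC50 was fitted from 11-point, 3-fold % inhibition curves.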
# [5] = system: LNCaP cells (human prostate tumor cell line); experiment: Akt LNCaP proliferation assay (MTS); format: cell-based; conditions: 48 hours
# Summary of the method: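 Cells plated at 10,000/well in RPMI with 2% FBS overnight at 37° C., 5% CO2, then exposed to compound at 1000 nM to 0.5 nM (3-fold dilutions) for 48 hours. Viable cells measured by MTS colorimetric read-out after 2 hours; IC50 taken as concentration giving 50% inhibition of total proliferation.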
# [6] = 2% fetal bovine serum, class symbols
# [7] = given as a bound, final concentrations 1000 nM to 0.5 nM
# T1 sequence (P31749 whole entry): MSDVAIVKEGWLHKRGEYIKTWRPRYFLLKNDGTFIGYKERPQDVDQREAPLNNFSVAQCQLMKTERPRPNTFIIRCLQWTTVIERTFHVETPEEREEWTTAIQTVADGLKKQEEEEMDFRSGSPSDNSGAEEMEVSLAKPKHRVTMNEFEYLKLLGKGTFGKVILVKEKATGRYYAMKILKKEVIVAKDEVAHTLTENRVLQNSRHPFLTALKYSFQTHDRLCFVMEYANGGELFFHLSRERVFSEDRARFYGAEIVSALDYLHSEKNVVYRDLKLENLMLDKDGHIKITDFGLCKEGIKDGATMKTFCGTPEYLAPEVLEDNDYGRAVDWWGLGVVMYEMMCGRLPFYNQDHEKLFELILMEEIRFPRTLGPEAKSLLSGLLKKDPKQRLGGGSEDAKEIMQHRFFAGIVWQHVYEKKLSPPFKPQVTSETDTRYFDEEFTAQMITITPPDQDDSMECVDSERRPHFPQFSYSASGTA
compound,measurement,setting,value
"Cn1ncc(COC2CCC2)c1-c1cc2c(cn1)C(=O)N([C@H](CN)Cc1cccc(F)c1)C2 [Example 97, 2-[(1S)-2-amino-1-(3-fluorobenzyl)ethyl]-6-[4-(cyclobutoxymethyl)-1-methyl-1H-pyrazol-5-yl]-1,2-dihydro-3H-pyrrolo[3,4-c]pyridin-3-one]",IC50,[1],< 500 nM
same,IC50,[2],< 500 nM
same,IC50,[3],< 500 nM
same,IC50,[4],> 5000 nM
same,IC50,[5]; [6],< 500 nM
"Cn1ncc(Cl)c1-c1cc2c(cn1)C(=O)N([C@H](CN)Cc1ccccc1)C2 [Example 100, 2-((1S)-2-amino-1-benzylethyl)-6-(4-chloro-1-methyl-1H-pyrazol-5-yl)-1,2-dihydro-3H-pyrrolo[3,4-c]pyridin-3-one]",IC50,[1],< 500 nM
same,IC50,[2],< 500 nM
same,IC50,[3],< 500 nM
same,IC50,[4],500 to 5000 nM
same,IC50,[5]; [6],< 500 nM
"Cn1ncc(Cl)c1-c1cc2c(cn1)C(=O)N([C@H](CN)Cc1cc(F)cc(F)c1)C2 [Example 101, 2-[(1S)-2-amino-1-(3,5-difluorobenzyl)ethyl]-6-(4-chloro-1-methyl-1H-pyrazol-5-yl)-1,2-dihydro-3H-pyrrolo[3,4-c]pyridin-3-one]",IC50,[1],< 500 nM
same,IC50,[2],< 500 nM
same,IC50,[3],< 500 nM
same,IC50,[4],500 to 5000 nM
same,IC50,[5]; [6],< 500 nM
"Cn1nccc1-c1cc2c(cn1)C(=O)N([C@H](CN)Cc1cc(F)cc(F)c1)C2 [Example 102, 2-[(1S)-2-amino-1-(3,5-difluoro-benzyl)ethyl]-6-(1-methyl-1H-pyrazol-5-yl)-1,2-dihydro-3H-pyrrolo[3,4-c]pyridin-3-one]",IC50,[1],< 500 nM
same,IC50,[2],< 500 nM
same,IC50,[3],< 500 nM
same,IC50,[4],500 to 5000 nM
same,IC50,[5]; [6],< 500 nM
"Cc1cnn(C)c1-c1cc2c(cn1)C(=O)N([C@H](CN)Cc1cc(F)cc(F)c1)C2 [Example 103, 2-[(1S)-2-amino-1-(3,5-difluoro-benzyl)ethyl]-6-(4-methyl-1-methyl-1H-pyrazol-5-yl)-1,2-dihydro-3H-pyrrolo[3,4-c]pyridin-3-one]",IC50,[1],< 500 nM
same,IC50,[2],< 500 nM
same,IC50,[3],< 500 nM
same,IC50,[4],500 to 5000 nM
same,IC50,[5]; [6],< 500 nM
"Cn1ncc(Br)c1-c1cc2c(cn1)C(=O)N([C@H](CN)Cc1cc(F)cc(F)c1)C2 [Example 104, 2-[(1S)-2-amino-1-(3,5-difluoro-benzyl)ethyl]-6-(4-broro-1-methyl-1H-pyrazol-5-yl)-1,2-dihydro-3H-pyrrolo[3,4-c]pyridin-3-one]",IC50,[1],< 500 nM
same,IC50,[2],< 500 nM
same,IC50,[3],< 500 nM
same,IC50,[4],500 to 5000 nM
same,IC50,[5]; [6],< 500 nM
"COCc1cnn(C)c1-c1cc2c(cn1)C(=O)N([C@H](CN)Cc1cc(F)cc(F)c1)C2 [Example 105, 2-[(1S)-2-amino-1-(3,5-difluoro-benzyl)ethyl]-6-(4-methoxymethyl-1-methyl-1H-pyrazol-5-yl)-1,2-dihydro-3H-pyrrolo[3,4-c]pyridin-3-one]",IC50,[1],< 500 nM
same,IC50,[2],500 to 5000 nM
same,IC50,[3],< 500 nM
same,IC50,[4],> 5000 nM
same,IC50,[5]; [6],500 to 5000 nM
"CC(C)OCc1cnn(C)c1-c1cc2c(cn1)C(=O)N([C@H](CN)Cc1cc(F)cc(F)c1)C2 [Example 106, 2-[(1S)-2-amino-1-(3,5-difluoro-benzyl)ethyl]-6-[4-(2-propoxy-methyl)-1-methyl-1H-pyrazol-5-yl]-1,2-dihydro-3H-pyrrolo[3,4-c]pyridin-3-one]",IC50,[1],< 500 nM
same,IC50,[2],< 500 nM
same,IC50,[3],< 500 nM
same,IC50,[4],> 5000 nM
same,IC50,[5]; [6],< 500 nM
"CCCOCc1cnn(C)c1-c1cc2c(cn1)C(=O)N([C@H](CN)Cc1cc(F)cc(F)c1)C2 [Example 107, 2-[(1S)-2-amino-1-(3,5-difluoro-benzyl)ethyl]-6-[4-(1-propoxy-methyl)-1-methyl-1H-pyrazol-5-yl]-1,2-dihydro-3H-pyrrolo[3,4-c]pyridin-3-one]",IC50,[1],< 500 nM
same,IC50,[2],< 500 nM
same,IC50,[3],< 500 nM
same,IC50,[4],> 5000 nM
same,IC50,[5]; [6],< 500 nM
"Cn1ncc(COC2CCC2)c1-c1cc2c(cn1)C(=O)N([C@H](CN)Cc1cc(F)cc(F)c1)C2 [Example 108, 2-[(1S)-2-amino-1-(3,5-difluoro-benzyl)ethyl]-6-[4-(cyclobutoxy-methyl)-1-methyl-1H-pyrazol-5-yl]-1,2-dihydro-3H-pyrrolo[3,4-c]pyridin-3-one]",IC50,[1],< 500 nM
same,IC50,[2],< 500 nM
same,IC50,[3],< 500 nM
same,IC50,[4],500 to 5000 nM
same,IC50,[5]; [6],< 500 nM
"Cn1nccc1-c1ccc2c(c1)CN([C@@H](CN)c1ccccc1)C2=O [Example 116, 2-[(1R)-2-amino-1-phenylethyl]-5-(1-methyl-1H-pyrazol-5-yl)isoindolin-1-one]",IC50,[1],< 500 nM
same,IC50,[2],< 500 nM
same,IC50,[3],500 to 5000 nM
same,IC50,[4],500 to 5000 nM
same,IC50,[5]; [6],< 500 nM
"Cn1nccc1-c1ccc2c(c1)CN(C(CN)c1cccc(F)c1)C2=O (stereo not drawn) [Example 117, 2-[2-amino-1-(3-fluorophenyl)ethyl]-5-(1-methyl-1H-pyrazol-5-yl)isoindolin-1-one]",IC50,[1],< 500 nM
same,IC50,[2],< 500 nM
same,IC50,[3],500 to 5000 nM
same,IC50,[4],500 to 5000 nM
same,IC50,[5]; [6],< 500 nM
"CCn1nccc1-c1ccc2c(c1)CN([C@H](CN)Cc1cccc(F)c1)C2=O [Example 127, 2-[(1S)-2-amino-1-(3-fluorobenzyl)ethyl]-5-(1-ethyl-1H-pyrazol-5-yl)isoindolin-1-one]",IC50,[1],< 500 nM
same,IC50,[2],< 500 nM
same,IC50,[3],< 500 nM
same,IC50,[4],> 5000 nM
same,IC50,[5]; [6],< 500 nM
"CCn1nccc1-c1ccc2c(c1)CN([C@H](CN)Cc1cc(F)cc(F)c1)C2=O [Example 128, 2-[(1S)-2-amino-1-(3,5-difluorobenzyl)ethyl]-5-(1-ethyl-1H-pyrazol-5-yl)isoindolin-1-one]",IC50,[1],< 500 nM
same,IC50,[2],< 500 nM
same,IC50,[3],< 500 nM
same,IC50,[4],> 5000 nM
same,IC50,[5]; [6],< 500 nM
"CC(C)Cn1nccc1-c1ccc2c(c1)CN([C@H](CN)Cc1cccc(F)c1)C2=O [Example 129, 2-[(1S)-2-amino-1-(3-fluorobenzyl)ethyl]-5-(1-isobutyl-1H-pyrazol-5-yl)isoindolin-1-one]",IC50,[1],500 to 5000 nM
same,IC50,[2],> 5000 nM
same,IC50,[3],> 5000 nM
same,IC50,[4],> 5000 nM
same,IC50,[5]; [7],> 1000 nM
"CC(C)Cn1nccc1-c1ccc2c(c1)CN([C@H](CN)Cc1cc(F)cc(F)c1)C2=O [Example 130, 2-[(1S)-2-amino-1-(3,5-difluorobenzyl)ethyl]-5-(1-isobutyl-1H-pyrazol-5-yl)isoindolin-1-one]",IC50,[1],500 to 5000 nM
same,IC50,[2],> 5000 nM
same,IC50,[3],> 5000 nM
same,IC50,[4],> 5000 nM
same,IC50,[5]; [7],> 1000 nM
"Cn1nccc1-c1ccc2c(c1)CN([C@H](CN)CC1CCCCC1)C2=O [Example 131, 2-[(1S)-2-amino-1-(cyclohexylmethyl)ethyl]-5-(1-methyl-1H-pyrazol-5-yl)isoindolin-1-one]",IC50,[1],< 500 nM
same,IC50,[2],< 500 nM
same,IC50,[3],< 500 nM
same,IC50,[4],500 to 5000 nM
same,IC50,[5]; [6],< 500 nM
"Cn1ncc(Cl)c1-c1ccc2c(c1)CN([C@H](CN)CC1CCCCC1)C2=O [Example 132, 2-[(1S)-2-amino-1-(cyclohexylmethyl)ethyl]-5-(4-chloro-1-methyl-1H-pyrazol-5-yl)isoindolin-1-one]",IC50,[1],< 500 nM
same,IC50,[2],< 500 nM
same,IC50,[3],< 500 nM
same,IC50,[4],500 to 5000 nM
same,IC50,[5]; [6],< 500 nM
"COCc1cnn(C)c1-c1ccc2c(c1)CN([C@H](CN)CC1CCCCC1)C2=O [Example 133, 2-[(1S)-2-amino-1-(cyclohexylmethyl)ethyl]-5-[4-(methoxymethyl)-1-methyl-1H-pyrazol-5-yl]isoindolin-1-one]",IC50,[1],< 500 nM
same,IC50,[2],500 to 5000 nM
same,IC50,[3],500 to 5000 nM
same,IC50,[4],> 5000 nM
same,IC50,[5]; [6],500 to 5000 nM
"Cn1nccc1-c1cc2c(cn1)C(=O)N([C@H](CN)CC1CCCCC1)C2 [Example 134, 2-[(1S)-2-amino-1-(cyclohexylmethyl)ethyl]-6-(1-methyl-1H-pyrazol-5-yl)-1,2-dihydro-3H-pyrrolo[3,4-c]pyridin-3-one]",IC50,[1],< 500 nM
same,IC50,[2],< 500 nM
same,IC50,[3],< 500 nM
same,IC50,[4],< 500 nM
same,IC50,[5]; [6],< 500 nM
"Cn1ncc(Cl)c1-c1cc2c(cn1)C(=O)N([C@H](CN)CC1CCCCC1)C2 [Example 135, 2-[(1S)-2-amino-1-(cyclohexylmethyl)ethyl]-6-(4-chloro-1-methyl-1H-pyrazol-5-yl)-1,2-dihydro-3H-pyrrolo[3,4-c]pyridin-3-one]",IC50,[1],< 500 nM
same,IC50,[2],< 500 nM
same,IC50,[3],< 500 nM
same,IC50,[4],500 to 5000 nM
same,IC50,[5]; [6],< 500 nM
